Data published in ChEMBL document CHEMBL1131794, “The synthesis and evaluation of 6-alkylidene-2'beta-substituted penam sulfones as beta-lactamase inhibitors” (Bioorg Med Chem Lett, 1999).

What was measured:
Beta-lactamase TEM = Beta-lactamase TEM (Escherichia coli, UniProt P62593); experiment: Inhibitory activity against serine Beta-lactamase TEM derived from […]; format: single protein
Beta-lactamase [1] = target: T1, Beta-lactamase (Staphylococcus aureus, UniProt P00807); experiment: Inhibitory activity against serine Beta-lactamase derived from Staphylococcus aureus
T1 sequence (P00807 whole entry): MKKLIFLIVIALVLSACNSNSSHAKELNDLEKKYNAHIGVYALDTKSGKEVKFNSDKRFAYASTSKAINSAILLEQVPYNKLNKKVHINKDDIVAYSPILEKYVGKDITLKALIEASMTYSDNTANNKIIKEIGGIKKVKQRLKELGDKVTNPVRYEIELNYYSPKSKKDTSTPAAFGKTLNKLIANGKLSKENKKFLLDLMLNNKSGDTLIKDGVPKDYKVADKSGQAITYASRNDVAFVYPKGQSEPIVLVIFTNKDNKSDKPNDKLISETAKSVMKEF

Beta-lactamase [2] = target: T1, Beta-lactamase; experiment: Inhibitory activity against serine beta-lactamase, PC1 (class A) derived from Staphylococcus aureus
Escherichia coli [3] = experiment: In vitro synergistic activity against Escherichia coli C600N + (Sme-1); format: functional
Escherichia coli [4] = experiment: In vitro synergistic activity against Escherichia coli 300 + (ampR ampC); format: functional; further: test concentration or dose not given here
Escherichia coli [5] = experiment: In vitro synergistic activity against Escherichia coli C600N (no beta-lactamase); format: functional
Enterobacter cloacae [6] = experiment: In vitro synergistic activity against Enterobacter cloacae SC12629 (AmpC inducible); format: functional; further: test concentration or dose not given here
Escherichia coli [7] = experiment: In vitro synergistic activity against Escherichia coli GC6265 (TEM-1); format: functional
Pseudomonas aeruginosa = experiment: In vitro synergistic activity against Pseudomonas aeruginosa Ps505A1 (AmpC derepressed); format: functional; further: test concentration or dose not given here
Klebsiella pneumoniae [8] = experiment: In vitro synergistic activity against Klebsiella pneumoniae (ACT-1 + 3 blas, IPM=S); format: functional; further: test concentration or dose not given here
Escherichia coli [9] = experiment: In vitro synergistic activity against Escherichia coli GC 6266 clinical isolate; format: functional
Escherichia coli [10] = experiment: In vitro synergistic activity against Escherichia coli C600N + (TEM-10); format: functional
Serratia marcescens = experiment: In vitro synergistic activity against Serratia marcescens GC 4132 (Amp C); format: functional; further: test concentration or dose not given here
Escherichia coli [11] = experiment: In vitro synergistic activity against Escherichia coli 4100 (no beta-lactamase); format: functional
Staphylococcus aureus = experiment: In vitro synergistic activity against Staphylococcus aureus (PC1); format: functional; further: test concentration or dose not given here
Klebsiella pneumoniae [12] = experiment: In vitro synergistic activity against Klebsiella pneumoniae KC2 (TEM-10); format: functional; further: test concentration or dose not given here
Klebsiella aerogenes = experiment: In vitro synergistic activity against Enterobacter aerogenes GC 6268 clinical isolate; format: functional; further: test concentration or dose not given here
Aeromonas sobria = experiment: In vitro synergistic activity against Aeromonas sobria (Asb A, OXA-12, Asb M); format: functional; further: test concentration or dose not given here
Escherichia coli [13] = experiment: In vitro synergistic activity against Escherichia coli C600N + (Imi-1); format: functional
Escherichia coli [14] = experiment: In vitro synergistic activity against Escherichia coli C600N + (MIR-1); format: functional
Escherichia coli [15] = experiment: In vitro synergistic activity against Escherichia coli C600N + (PSE-1); format: functional
Escherichia coli [16] = experiment: In vitro synergistic activity against Escherichia coli C600N + (ampR ampC); format: functional; further: test concentration or dose not given here
Enterobacter cloacae [17] = experiment: In vitro synergistic activity against Enterobacter cloacae (Imi-1+AmpC); format: functional
Escherichia coli [18] = experiment: In vitro synergistic activity against Escherichia coli 300 (no beta-lactamase, imp mutant); format: functional
[19] = test system: Stenotrophomonas maltophilia; experiment: In vitro synergistic activity against Stenotrophomonas maltophilia 1712(L1); format: functional; further: test concentration or dose not given here
Escherichia coli [20] = experiment: In vitro synergistic activity against Escherichia coli C600N + (OXA-10) {PSE-2}; format: functional
Escherichia coli [21] = experiment: In vitro synergistic activity against Escherichia coli C600N + (P99); format: functional
Escherichia coli [22] = experiment: In vitro synergistic activity against Escherichia coli C600N + (IRT-2); format: functional; further: test concentration or dose not given here
Escherichia coli [23] = experiment: In vitro synergistic activity against Escherichia coli ATCC 35218 (TEM-1); format: functional
Escherichia coli [24] = experiment: In vitro synergistic activity against Escherichia coli C600N + (SHV-4); format: functional
Escherichia coli [25] = experiment: In vitro synergistic activity against Escherichia coli C600N + (L1); format: functional
Escherichia coli [26] = experiment: In vitro synergistic activity against Escherichia coli C600N + (TEM-1); format: functional
Escherichia coli [27] = experiment: In vitro synergistic activity against Escherichia coli GC6267 clinical isolate; format: functional
Escherichia coli [28] = experiment: In vitro synergistic activity against Escherichia coli 300 + (TEM-1); format: functional
Escherichia coli [29] = experiment: In vitro synergistic activity against Escherichia coli ATCC 25922 (no beta-lactamase); format: functional; further: test concentration or dose not given here
Escherichia coli [30] = experiment: In vitro synergistic activity against Escherichia coli 4100 + (CCRA); format: functional
Escherichia coli [31] = experiment: In vitro synergistic activity against Escherichia coli C600N + (SHV-1); format: functional
Klebsiella pneumoniae [32] = experiment: In vitro synergistic activity against Klebsiella pneumoniae GC 6269 clinical isolate; format: functional; further: test concentration or dose not given here

Sequence of Beta-lactamase TEM (P62593 whole entry): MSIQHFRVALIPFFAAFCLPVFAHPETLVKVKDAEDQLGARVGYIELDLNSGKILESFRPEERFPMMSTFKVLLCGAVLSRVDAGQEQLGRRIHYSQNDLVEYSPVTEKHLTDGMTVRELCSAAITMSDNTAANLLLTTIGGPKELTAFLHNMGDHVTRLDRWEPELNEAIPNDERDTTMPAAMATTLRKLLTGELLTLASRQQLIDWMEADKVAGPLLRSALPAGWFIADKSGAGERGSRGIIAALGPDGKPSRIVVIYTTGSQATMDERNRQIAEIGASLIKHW

Compound: CC(=O)OC[C@@]1(C)[C@H](C(=O)O)N2C(=O)/C(=C/C(N)=O)C2S1(=O)=O (some centres undefined)
- IC50 (Beta-lactamase TEM): 0.31 µM
- IC50 (Beta-lactamase [1]): 8.48 µM
- IC50 (Beta-lactamase [2]): 2.21 µM

Compound: CC(=O)OC[C@@]1(C)[C@H](C(=O)O)N2C(=O)/C(=C/c3ccccn3)C2S1(=O)=O (some centres undefined)
- IC50 (Beta-lactamase TEM): 0.004 µM
- IC50 (Beta-lactamase [1]): 0.062 µM
- IC50 (Beta-lactamase [2]): 0.66 µM

Compound: COC(=O)/C=C1/C(=O)N2C1S(=O)(=O)[C@@](C)(COC(=O)CSc1nnnn1C)[C@@H]2C(=O)O (some centres undefined)
- IC50 (Beta-lactamase TEM): 2.37 µM
- IC50 (Beta-lactamase [1]): 13.2 µM
- IC50 (Beta-lactamase [2]): 940 µM

Compound: C[C@]1(COC(=O)CCl)[C@H](C(=O)O)N2C(=O)/C(=C/C(=O)O)[C@H]2S1(=O)=O
- IC50 (Beta-lactamase TEM): 0.196 µM
- IC50 (Beta-lactamase [2]): 7.2 µM

Compound: Cn1nnnc1SCC(=O)OC[C@@]1(C)[C@H](C(=O)O)N2C(=O)/C(=C/C(=O)O)C2S1(=O)=O (some centres undefined)
- IC50 (Beta-lactamase TEM): 0.233 µM
- IC50 (Beta-lactamase [1]): 0.64 µM

Compound: CC1(C)[C@H](C(=O)O)N2C(=O)/C(=C/C(=O)O)C2S1(=O)=O (some centres undefined)
- IC50 (Beta-lactamase TEM): 1.8 µM
- IC50 (Beta-lactamase [1]): 4.5 µM
- IC50 (Beta-lactamase [2]): 108 µM

Compound: CC(C)(O/N=C(\C(=O)N[C@@H]1C(=O)N2C(C(=O)[O-])=C(C[n+]3ccccc3)CS[C@H]12)c1csc(N)n1)C(=O)O [CEFTAZIDIME]
- MIC (Escherichia coli [3]): 0.5 µg/mL
- MIC (Escherichia coli [4]): 4 µg/mL
- MIC (Escherichia coli [5]): 0.12 µg/mL
- MIC (Enterobacter cloacae [6]): > 64 µg/mL
- MIC (Escherichia coli [7]): < 0.06 µg/mL
- MIC (Pseudomonas aeruginosa): 32 µg/mL
- MIC (Klebsiella pneumoniae [8]): > 64 µg/mL
- MIC (Escherichia coli [9]): 0.25 µg/mL
- MIC (Escherichia coli [10]): 64 µg/mL
- MIC (Serratia marcescens): 0.25 µg/mL
- MIC (Escherichia coli [11]): < 0.06 µg/mL
- MIC (Staphylococcus aureus): 4 µg/mL
- MIC (Klebsiella pneumoniae [12]): 64 µg/mL
- MIC (Klebsiella aerogenes): > 64 µg/mL
- MIC (Aeromonas sobria): < 0.06 µg/mL
- MIC (Escherichia coli [13]): 1 µg/mL
- MIC (Escherichia coli [14]): 64 µg/mL
- MIC (Escherichia coli [15]): 0.25 µg/mL
- MIC (Escherichia coli [16]): 64 µg/mL
- MIC (Enterobacter cloacae [17]): 0.5 µg/mL
- MIC (Escherichia coli [18]): < 0.06 µg/mL
- MIC [19]: > 64 µg/mL
- MIC (Escherichia coli [20]): 0.12 µg/mL
- MIC (Escherichia coli [21]): 64 µg/mL
- MIC (Escherichia coli [22]): 0.25 µg/mL
- MIC (Escherichia coli [23]): < 0.06 µg/mL
- MIC (Escherichia coli [24]): > 64 µg/mL
- MIC (Escherichia coli [25]): 32 µg/mL
- MIC (Escherichia coli [26]): 0.12 µg/mL
- MIC (Escherichia coli [27]): 0.25 µg/mL
- MIC (Escherichia coli [28]): < 0.06 µg/mL
- MIC (Escherichia coli [29]): < 0.06 µg/mL
- MIC (Escherichia coli [30]): > 64 µg/mL
- MIC (Escherichia coli [31]): 0.5 µg/mL
- MIC (Klebsiella pneumoniae [32]): 0.5 µg/mL

Compound: CCN1CCN(C(=O)N[C@@H](C(=O)N[C@@H]2C(=O)N3[C@@H]2SC(C)(C)[C@@H]3C(=O)O)c2ccccc2)C(=O)C1=O [PIPERACILLIN]
- MIC (Escherichia coli [3]): > 64 µg/mL
- MIC (Escherichia coli [4]): 16 µg/mL
- MIC (Escherichia coli [5]): 2 µg/mL
- MIC (Enterobacter cloacae [6]): > 64 µg/mL
- MIC (Escherichia coli [7]): > 64 µg/mL
- MIC (Pseudomonas aeruginosa): > 64 µg/mL
- MIC (Klebsiella pneumoniae [8]): > 64 µg/mL
- MIC (Escherichia coli [9]): > 64 µg/mL
- MIC (Serratia marcescens): 64 µg/mL
- MIC (Escherichia coli [11]): < 0.06 µg/mL
- MIC (Staphylococcus aureus): > 64 µg/mL
- MIC (Klebsiella pneumoniae [12]): > 64 µg/mL
- MIC (Klebsiella aerogenes): > 64 µg/mL
- MIC (Aeromonas sobria): 64 µg/mL
- MIC (Escherichia coli [13]): > 64 µg/mL
- MIC (Escherichia coli [14]): 64 µg/mL
- MIC (Escherichia coli [15]): 32 µg/mL
- MIC (Escherichia coli [16]): > 64 µg/mL
- MIC (Enterobacter cloacae [17]): > 64 µg/mL
- MIC [19]: > 64 µg/mL
- MIC (Escherichia coli [21]): > 64 µg/mL
- MIC (Escherichia coli [22]): > 64 µg/mL
- MIC (Escherichia coli [23]): > 64 µg/mL
- MIC (Escherichia coli [25]): > 64 µg/mL
- MIC (Escherichia coli [27]): > 64 µg/mL
- MIC (Escherichia coli [28]): > 64 µg/mL
- MIC (Escherichia coli [29]): 2 µg/mL
- MIC (Escherichia coli [30]): > 64 µg/mL
- MIC (Escherichia coli [31]): 4 µg/mL
- MIC (Klebsiella pneumoniae [32]): > 64 µg/mL

Compound: C[C@]1(COC(=O)Cc2ccccc2)[C@H](C(=O)O)N2C(=O)/C(=C/C(=O)O)C2S1(=O)=O (some centres undefined)
- IC50 (Beta-lactamase TEM): 0.0154 µM
- IC50 (Beta-lactamase [1]): 0.54 µM
- IC50 (Beta-lactamase [2]): 579 µM

Compound: COC(=O)/C=C1/C(=O)N2C1S(=O)(=O)[C@@](C)(CCl)[C@@H]2C(=O)O (some centres undefined)
- IC50 (Beta-lactamase [1]): 13.9 µM
- IC50 (Beta-lactamase [2]): 432 µM

Compound: C[C@]1(/C=C/C#N)[C@H](C(=O)O)N2C(=O)/C(=C/C(=O)O)C2S1(=O)=O (some centres undefined)
- IC50 (Beta-lactamase TEM): 21.7 µM
- IC50 (Beta-lactamase [1]): 6.76 µM
- IC50 (Beta-lactamase [2]): 504 µM
